Assay results taken from ChEMBL document CHEMBL1158429, “Selective cytochrome P450 3A4 inhibitory activity of Amaryllidaceae alkaloids” (Bioorg Med Chem Lett, 2009).

Molecular target: Cytochrome P450 3A4 (Homo sapiens, UniProt P08684)
Test: Inhibition of human CYP3A4 assessed as biotransformation of 7-benzyloxyquinoline; call rule not given here
Assay type: ADME

Chain of Cytochrome P450 3A4 (P08684 whole entry): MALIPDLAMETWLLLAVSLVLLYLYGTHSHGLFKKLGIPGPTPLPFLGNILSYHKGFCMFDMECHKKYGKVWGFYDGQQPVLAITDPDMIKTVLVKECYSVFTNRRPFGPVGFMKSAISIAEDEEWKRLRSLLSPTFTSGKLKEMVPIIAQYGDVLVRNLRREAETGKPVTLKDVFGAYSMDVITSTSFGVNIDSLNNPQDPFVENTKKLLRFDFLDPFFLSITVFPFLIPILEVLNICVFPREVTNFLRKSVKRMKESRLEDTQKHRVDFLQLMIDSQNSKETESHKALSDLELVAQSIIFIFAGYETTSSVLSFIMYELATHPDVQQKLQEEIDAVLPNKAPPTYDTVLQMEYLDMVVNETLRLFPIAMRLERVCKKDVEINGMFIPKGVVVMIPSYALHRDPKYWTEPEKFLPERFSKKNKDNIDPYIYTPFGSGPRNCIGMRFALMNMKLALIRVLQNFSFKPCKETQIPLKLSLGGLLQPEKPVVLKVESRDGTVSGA

| Ki (read-out: Ki) | Ki (read-out: pKi (converted)) | SMILES | Ki |
| --- | --- | --- | --- |
| 0.21 µM | 0.158 µM | CC(=O)O[C@H]1[C@H]2c3cc4c(cc3CN3CCC(=C[C@@H]1O[Si](C)(C)C(C)(C)C)[C@H]23)OCO4 |  |
| 7.6 µM |  | CC(=O)O[C@H]1[C@H]2c3cc4c(cc3CN3CCC(=C[C@@H]1O)[C@H]23)OCO4 |  |
|  |  | O[C@H]1[C@H]2c3cc4c(cc3CN3CCC(=C[C@@H]1O)[C@H]23)OCO4 [LYCORINE] | Not Active |
| 11 µM |  | CC(=O)O[C@H]1[C@H]2c3cc4c(cc3CN3CCC(=C[C@@H]1OC(C)=O)[C@H]23)OCO4 |  |
|  |  | O=C1N[C@H]2[C@H](O)[C@H](O)[C@@H](O)[C@H](O)[C@@H]2c2cc3c(c(O)c21)OCO3 [PANCRATISTATIN] | Not Active |

| SMILES | Ki (read-out: Ki) | Ki (read-out: pKi (converted)) | Ki |
| --- | --- | --- | --- |
| CC(C)(C)[Si](C)(C)O[C@H]1C=C2CCN3Cc4cc5c(cc4[C@H]([C@@H]1O)[C@@H]23)OCO5 | 0.26 µM |  |  |
| O=C1N[C@@H]2C(=C[C@H](O)[C@@H](O)[C@H]2O)c2cc3c(c(O)c21)OCO3 [NARCICLASINE] | 0.63 µM |  |  |
